Assay type in all cases: biochemical
In experiment [1] the target is T1, HDAC10 (Homo sapiens, UniProt Q969S8).
T1 construct: made in house
T1 sequence (Q969S8 1-669): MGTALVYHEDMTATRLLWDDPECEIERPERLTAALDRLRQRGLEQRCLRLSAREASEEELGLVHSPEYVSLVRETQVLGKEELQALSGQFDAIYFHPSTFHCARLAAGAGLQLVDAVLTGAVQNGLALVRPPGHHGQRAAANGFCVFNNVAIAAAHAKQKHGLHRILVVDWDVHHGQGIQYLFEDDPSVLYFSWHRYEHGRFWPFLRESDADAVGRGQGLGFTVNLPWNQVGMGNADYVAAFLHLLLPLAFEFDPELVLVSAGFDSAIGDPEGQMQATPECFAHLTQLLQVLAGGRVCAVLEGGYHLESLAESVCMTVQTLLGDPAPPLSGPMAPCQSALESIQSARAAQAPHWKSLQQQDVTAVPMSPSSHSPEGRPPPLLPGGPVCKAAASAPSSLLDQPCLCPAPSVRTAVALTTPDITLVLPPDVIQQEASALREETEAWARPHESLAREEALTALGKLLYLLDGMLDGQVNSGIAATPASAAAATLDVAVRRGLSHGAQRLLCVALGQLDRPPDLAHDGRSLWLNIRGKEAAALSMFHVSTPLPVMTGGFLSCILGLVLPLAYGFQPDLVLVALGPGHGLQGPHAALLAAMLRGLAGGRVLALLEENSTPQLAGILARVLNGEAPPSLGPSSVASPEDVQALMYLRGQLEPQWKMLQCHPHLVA
Put plainly: Inhibition of HDAC enzymes, 12-point concentration-response. The following applies: for IC50: HDAC10. The protocol: (§1) Compounds were tested in a 12-point concentration-response format against 11 HDAC enzymes as outlined in Table 2A. Test compounds were diluted in 100% DMSO using 3-fold dilution steps. The final compound concentration in the assay ranged from 100 μM to 0.565 nM or as requested. Compounds were tested in a single well for each dilution, and the final concentration of DMSO in all assays was kept at 1%. Reference compounds were tested in an identical manner.

Experiment [2] concerns the target T2, HDAC7 (Homo sapiens, UniProt Q8WUI4).
T2 construct: made in house
Described as above. The protocol:
as §1

Experiment [3] addresses T3, HDAC4 (Homo sapiens, UniProt P56524).
T3 construct: made in house
Described as above. The protocol:
as §1

In experiment [4] the target is T4, HDAC9 (Homo sapiens, UniProt Q9UKV0).
T4 construct: purchased BPS 50009
The experiment is described as above. The protocol:
as §1

Experiment [5] deals with T5, HDAC5 (Homo sapiens, UniProt Q9UQL6).
T5 construct: purchased BPS 50045
Described as above. The protocol:
as §1

In experiment [6] the target is T6, HDAC3 (Homo sapiens, UniProt O15379).
T6 construct: purchased BPS 50003
The experiment is described as above. To be noted: for IC50: HDAC3. The protocol:
as §1

For experiment [7], the target named is T7, HDAC1 (Homo sapiens, UniProt Q13547).
T7 construct: purchased BPS 50051
The description is as above. The protocol:
as §1

In experiment [8] the target is T8, HDAC6 (Homo sapiens, UniProt Q9UBN7).
T8 sequence (Q9UBN7 1-1215): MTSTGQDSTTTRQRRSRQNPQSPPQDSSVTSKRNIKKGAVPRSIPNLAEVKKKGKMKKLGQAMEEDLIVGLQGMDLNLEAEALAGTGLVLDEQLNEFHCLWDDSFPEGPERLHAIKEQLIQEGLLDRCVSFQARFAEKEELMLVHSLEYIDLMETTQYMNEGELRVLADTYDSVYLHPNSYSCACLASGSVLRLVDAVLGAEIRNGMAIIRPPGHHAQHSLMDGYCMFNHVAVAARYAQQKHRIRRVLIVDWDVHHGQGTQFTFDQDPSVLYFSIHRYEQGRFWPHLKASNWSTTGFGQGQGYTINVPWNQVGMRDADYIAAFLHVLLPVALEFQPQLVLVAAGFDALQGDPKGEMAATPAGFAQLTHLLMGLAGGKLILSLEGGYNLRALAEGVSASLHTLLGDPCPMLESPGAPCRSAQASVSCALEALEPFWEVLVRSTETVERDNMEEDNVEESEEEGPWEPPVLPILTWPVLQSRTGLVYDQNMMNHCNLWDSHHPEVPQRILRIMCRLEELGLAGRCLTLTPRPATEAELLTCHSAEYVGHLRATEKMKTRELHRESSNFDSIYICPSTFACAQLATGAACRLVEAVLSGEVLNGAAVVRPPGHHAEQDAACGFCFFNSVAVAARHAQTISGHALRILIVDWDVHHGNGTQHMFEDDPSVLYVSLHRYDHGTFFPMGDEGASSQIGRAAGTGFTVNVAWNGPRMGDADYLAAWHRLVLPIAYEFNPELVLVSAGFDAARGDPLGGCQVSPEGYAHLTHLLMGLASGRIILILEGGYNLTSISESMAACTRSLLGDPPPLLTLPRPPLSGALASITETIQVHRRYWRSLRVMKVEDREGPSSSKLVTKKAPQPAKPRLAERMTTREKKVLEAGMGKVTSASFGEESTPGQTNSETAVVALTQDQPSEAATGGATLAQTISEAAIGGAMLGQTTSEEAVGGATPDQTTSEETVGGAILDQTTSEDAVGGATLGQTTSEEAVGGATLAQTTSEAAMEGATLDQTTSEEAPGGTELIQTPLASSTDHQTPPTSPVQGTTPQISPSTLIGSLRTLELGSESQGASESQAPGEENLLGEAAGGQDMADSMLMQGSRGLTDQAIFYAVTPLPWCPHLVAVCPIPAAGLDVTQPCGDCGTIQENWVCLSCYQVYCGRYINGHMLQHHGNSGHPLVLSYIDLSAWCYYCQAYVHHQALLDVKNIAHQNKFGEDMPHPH
Described as above. Also on record: made in house. The following applies: for IC50: HDAC6. The protocol:
as §1

Experiment [9] addresses T8, HDAC6. Put plainly: Determination of Koff kinetics against HDAC6 protein. The following applies: for residence time: 100 nM HDAC6 pre-incubated with 0.120 μM compound for 3 hr, diluted 200×, Ln(2)/Kobs, read-out: residence time for binding to HDAC6. The protocol:
The disassociation rate for #1a (FIG. 3) or #1b (FIG. 4) was determined by pre-incubating 100 nM HDAC6 protein with 0.120 μM compound #1a, #1b, or DMSO for 3 hr. After pre-incubation, the compound-enzyme complex was diluted (200×) into an assay buffer with substrate peptide. Progress curves for ˜8 hrs were observed using Labchip3000 instrument. Progress curve after pre-incubation with compound (blue) was fit with following equation: ((A+(Vs*x))+(((Vo−Vs)*(1−exp(((−1)*Kobs)*t)))/Kobs)), to determine observed rate of dissociation. Residence time was determined as Ln(2)/Kobs.

T6 sequence (O15379 whole entry): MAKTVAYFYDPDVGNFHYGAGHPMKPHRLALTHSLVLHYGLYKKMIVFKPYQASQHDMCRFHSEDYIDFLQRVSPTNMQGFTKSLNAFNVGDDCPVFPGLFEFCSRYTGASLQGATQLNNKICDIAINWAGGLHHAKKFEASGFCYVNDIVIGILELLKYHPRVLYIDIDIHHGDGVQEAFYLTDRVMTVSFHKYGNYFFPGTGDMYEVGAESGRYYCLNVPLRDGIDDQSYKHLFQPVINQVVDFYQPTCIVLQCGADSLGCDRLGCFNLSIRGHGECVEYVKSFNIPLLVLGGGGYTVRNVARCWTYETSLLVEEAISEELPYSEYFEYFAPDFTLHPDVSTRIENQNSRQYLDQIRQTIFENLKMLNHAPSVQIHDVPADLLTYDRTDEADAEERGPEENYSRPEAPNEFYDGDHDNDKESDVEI
T6 sequence (Q9Y618 395-489 partner limits assumed): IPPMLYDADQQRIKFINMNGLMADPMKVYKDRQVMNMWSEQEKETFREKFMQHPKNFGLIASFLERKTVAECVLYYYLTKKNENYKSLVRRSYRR
T5 sequence (Q9UQL6 whole entry): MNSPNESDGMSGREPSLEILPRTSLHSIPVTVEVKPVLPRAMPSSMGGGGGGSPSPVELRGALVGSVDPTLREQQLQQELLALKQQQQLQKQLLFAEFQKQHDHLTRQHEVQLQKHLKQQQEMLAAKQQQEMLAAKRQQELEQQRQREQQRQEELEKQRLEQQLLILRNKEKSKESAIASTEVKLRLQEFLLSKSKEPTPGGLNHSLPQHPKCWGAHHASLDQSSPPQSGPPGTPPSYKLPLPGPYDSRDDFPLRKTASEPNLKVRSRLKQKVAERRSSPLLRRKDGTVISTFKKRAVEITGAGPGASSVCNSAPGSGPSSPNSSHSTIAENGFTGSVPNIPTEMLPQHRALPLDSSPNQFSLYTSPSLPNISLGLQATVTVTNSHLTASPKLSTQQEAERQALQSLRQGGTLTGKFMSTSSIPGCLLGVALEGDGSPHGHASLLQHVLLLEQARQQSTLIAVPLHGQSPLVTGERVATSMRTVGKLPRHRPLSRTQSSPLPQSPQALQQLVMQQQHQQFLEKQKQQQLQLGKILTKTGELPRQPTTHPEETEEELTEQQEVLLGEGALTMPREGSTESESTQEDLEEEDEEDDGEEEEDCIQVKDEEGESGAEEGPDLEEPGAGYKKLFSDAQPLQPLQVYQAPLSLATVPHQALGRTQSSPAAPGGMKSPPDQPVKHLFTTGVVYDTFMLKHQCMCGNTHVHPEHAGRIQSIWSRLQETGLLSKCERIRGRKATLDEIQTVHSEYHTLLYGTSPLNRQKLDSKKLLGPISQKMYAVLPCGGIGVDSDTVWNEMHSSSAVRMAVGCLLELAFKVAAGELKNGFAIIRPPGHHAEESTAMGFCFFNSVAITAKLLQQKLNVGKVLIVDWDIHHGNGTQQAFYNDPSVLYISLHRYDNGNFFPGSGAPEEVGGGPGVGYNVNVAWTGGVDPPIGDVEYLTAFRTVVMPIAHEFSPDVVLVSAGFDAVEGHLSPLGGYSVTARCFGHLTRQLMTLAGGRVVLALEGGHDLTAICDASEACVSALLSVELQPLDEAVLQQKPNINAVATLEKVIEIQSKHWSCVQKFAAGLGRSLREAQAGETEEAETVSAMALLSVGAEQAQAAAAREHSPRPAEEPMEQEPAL
T3 sequence (P56524 whole entry, species assumed): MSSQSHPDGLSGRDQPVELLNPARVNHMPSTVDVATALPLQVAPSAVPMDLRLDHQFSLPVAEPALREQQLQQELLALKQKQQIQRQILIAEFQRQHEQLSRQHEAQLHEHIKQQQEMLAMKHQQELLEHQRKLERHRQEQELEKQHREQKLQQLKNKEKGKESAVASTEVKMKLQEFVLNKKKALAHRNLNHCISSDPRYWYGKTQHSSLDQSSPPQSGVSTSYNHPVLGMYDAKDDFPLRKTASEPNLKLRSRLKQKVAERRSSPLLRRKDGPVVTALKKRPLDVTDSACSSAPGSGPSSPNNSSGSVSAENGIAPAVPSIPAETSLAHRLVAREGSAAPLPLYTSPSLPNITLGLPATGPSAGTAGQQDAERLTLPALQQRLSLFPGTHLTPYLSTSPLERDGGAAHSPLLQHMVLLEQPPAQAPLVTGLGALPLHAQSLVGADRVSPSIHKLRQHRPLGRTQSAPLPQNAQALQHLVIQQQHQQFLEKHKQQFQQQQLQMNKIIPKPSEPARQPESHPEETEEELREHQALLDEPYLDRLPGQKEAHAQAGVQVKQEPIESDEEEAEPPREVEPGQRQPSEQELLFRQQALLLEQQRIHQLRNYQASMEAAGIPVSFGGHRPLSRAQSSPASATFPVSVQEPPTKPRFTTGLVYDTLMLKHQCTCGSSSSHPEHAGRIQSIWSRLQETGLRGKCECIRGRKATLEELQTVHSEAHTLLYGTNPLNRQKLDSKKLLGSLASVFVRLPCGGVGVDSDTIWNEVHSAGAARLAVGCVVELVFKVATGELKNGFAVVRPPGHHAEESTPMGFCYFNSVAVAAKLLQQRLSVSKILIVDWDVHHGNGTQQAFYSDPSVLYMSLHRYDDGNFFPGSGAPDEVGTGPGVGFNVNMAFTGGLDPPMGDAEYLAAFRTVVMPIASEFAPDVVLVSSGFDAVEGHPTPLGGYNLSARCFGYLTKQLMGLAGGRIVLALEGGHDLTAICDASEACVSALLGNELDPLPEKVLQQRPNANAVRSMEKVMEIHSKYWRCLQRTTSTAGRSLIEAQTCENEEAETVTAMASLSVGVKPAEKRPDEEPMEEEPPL
T4 sequence (Q9UKV0 1-1066 isoform Q9UKV0-5): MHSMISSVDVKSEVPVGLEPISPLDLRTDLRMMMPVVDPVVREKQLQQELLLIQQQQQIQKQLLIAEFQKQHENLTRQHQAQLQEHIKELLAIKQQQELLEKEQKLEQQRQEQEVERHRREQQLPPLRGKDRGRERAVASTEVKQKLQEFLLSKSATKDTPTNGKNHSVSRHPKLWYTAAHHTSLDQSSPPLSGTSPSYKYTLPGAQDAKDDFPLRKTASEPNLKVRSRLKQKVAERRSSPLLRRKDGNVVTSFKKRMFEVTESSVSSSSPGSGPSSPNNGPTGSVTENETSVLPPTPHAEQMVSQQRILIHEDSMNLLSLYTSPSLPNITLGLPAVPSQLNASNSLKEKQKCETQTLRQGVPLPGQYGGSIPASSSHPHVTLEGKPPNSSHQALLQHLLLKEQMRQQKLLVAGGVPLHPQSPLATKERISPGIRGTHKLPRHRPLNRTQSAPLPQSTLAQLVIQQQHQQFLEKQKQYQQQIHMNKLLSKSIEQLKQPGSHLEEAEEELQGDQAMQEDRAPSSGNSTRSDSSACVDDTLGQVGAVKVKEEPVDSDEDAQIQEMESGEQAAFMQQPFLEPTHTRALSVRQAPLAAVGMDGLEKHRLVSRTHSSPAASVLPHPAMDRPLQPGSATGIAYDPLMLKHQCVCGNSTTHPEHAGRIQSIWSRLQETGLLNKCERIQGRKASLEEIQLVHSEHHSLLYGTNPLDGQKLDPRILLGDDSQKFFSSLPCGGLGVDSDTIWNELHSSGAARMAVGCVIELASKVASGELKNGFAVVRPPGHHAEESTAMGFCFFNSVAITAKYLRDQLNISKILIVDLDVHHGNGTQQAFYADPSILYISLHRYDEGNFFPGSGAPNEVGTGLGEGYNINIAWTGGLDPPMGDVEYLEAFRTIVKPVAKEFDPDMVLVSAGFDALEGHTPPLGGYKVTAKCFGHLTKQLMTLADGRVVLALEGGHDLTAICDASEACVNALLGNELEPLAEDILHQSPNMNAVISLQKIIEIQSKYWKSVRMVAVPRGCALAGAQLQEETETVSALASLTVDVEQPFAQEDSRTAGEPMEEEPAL
T2 sequence (Q8WUI4 whole entry): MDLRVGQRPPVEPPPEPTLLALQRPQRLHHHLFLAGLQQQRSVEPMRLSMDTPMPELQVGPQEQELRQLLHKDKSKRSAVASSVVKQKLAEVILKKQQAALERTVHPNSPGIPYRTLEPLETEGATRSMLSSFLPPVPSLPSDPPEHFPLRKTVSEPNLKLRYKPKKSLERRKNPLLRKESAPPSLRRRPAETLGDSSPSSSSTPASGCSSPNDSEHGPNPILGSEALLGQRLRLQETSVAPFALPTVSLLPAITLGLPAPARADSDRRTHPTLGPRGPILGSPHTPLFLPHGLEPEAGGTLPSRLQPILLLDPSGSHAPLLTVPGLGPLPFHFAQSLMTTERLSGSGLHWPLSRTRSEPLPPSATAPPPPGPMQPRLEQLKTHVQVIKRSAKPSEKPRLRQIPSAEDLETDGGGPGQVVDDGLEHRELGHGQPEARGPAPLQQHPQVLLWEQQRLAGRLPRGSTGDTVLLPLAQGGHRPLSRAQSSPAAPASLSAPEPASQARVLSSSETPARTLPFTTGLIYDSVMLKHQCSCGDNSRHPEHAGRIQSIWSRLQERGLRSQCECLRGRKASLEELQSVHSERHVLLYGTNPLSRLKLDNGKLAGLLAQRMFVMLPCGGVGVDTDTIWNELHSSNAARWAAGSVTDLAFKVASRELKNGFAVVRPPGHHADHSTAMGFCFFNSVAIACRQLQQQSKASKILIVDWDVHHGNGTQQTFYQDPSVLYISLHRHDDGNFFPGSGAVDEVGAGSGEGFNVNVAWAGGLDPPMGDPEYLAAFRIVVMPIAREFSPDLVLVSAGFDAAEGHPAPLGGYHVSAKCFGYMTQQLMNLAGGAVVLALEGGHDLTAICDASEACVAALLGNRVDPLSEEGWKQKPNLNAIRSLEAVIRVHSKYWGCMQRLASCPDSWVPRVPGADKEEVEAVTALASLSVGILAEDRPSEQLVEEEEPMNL

As to `CC[C@H](C(=O)Nc1ncc(C(=O)NO)s1)c1ccc(OC)cc1` [#1a, (S)—N-hydroxy-2-(2-(4-methoxyphenyl)butanamido)thiazole-5-carboxamide], the IC50 (in general, the point on the concentration scale where inhibition reaches its midpoint) in experiment [1] is 2 nM; in [6], below 0.56 nM; in [8], 0.71 nM. Also, the “Fold (1b/1a)” value in experiment [1] (ratio of IC50, HDAC10) turned out to be 7.3; in experiment [2] (ratio of IC50, HDAC7), 3.4; in [3] (ratio of IC50, HDAC4), 1.2; in [4] (ratio of IC50, HDAC9), 1.1; in [5] (ratio of IC50, HDAC5), 1.4; in experiment [6] (ratio of IC50, HDAC3) it was 4.6. The “Fold (1b/1a)” value in experiment [7] (ratio of IC50, HDAC1) was determined as 7.8; in experiment [8] (ratio of IC50, HDAC6), 1.5. Moreover, the residence time in experiment [9] stood at 1920 min. In addition, in [9] (HDAC6), the “binding to HDAC6 (in words)” value is recorded as “very tightly bound inhibitor of HDAC6”. Besides, in experiment [9] (HDAC6), the “increase in residence time compared to #1b” value stood at 55 fold.

Regarding `CC[C@@H](C(=O)Nc1ncc(C(=O)NO)s1)c1ccc(OC)cc1` [#1b, (R)—N-hydroxy-2-(2-(4-methoxyphenyl)butanamido)thiazole-5-carboxamide], the IC50 in experiment [1] was 14.6 nM; in [2] (HDAC7), 118 nM; in experiment [3] (HDAC4), 160 nM; in experiment [4] (HDAC9), 210 nM; in experiment [5] (HDAC5), 100 nM; in experiment [6], 2.6 nM. In addition, the IC50 in experiment [7] (HDAC1) came out at 7.8 nM; in experiment [8], 1.1 nM. Further, the residence time in experiment [9] was found to be 35 min.

(Values after US11420947B2, “(S)-n-hydroxy-2-(2-(4-methoxyphenyl)butanamido)thiazole-5-carboxamide and pharmaceutically acceptable salts thereof” (TRANSLATIONAL DRUG DEVELOPMENT, LLC, priority 2018, dated 2022).)
